This is an account of results in patent US8187821B2, “Compositions and methods for the modulation of PGRMC1” (University of Utah Research Foundation, priority 2008, dated 2012).

The target of one assay is T1, His10-PGRMC1 (Homo sapiens, UniProt O00264).
T1 construct: a product containing the full length coding region of PGMRC1 flanked by Nde1 and BamHI restriction sites; made in house; host or cells: E. coli BL21 (DE3) / BL21 codon plus (RIPL); purified bacterial membranes
Kind of assay: Competition of cold competitors with [^3H] progesterone or [^3H] cholesterol for His10-PGRMC1 binding. Conditions: for effect of cold competitor on binding of [^3H] cholesterol: competitor at ten-fold higher concentration; for effect of cold competitor on specific [^3H] progesterone binding: competitor in ten-fold excess. The protocol:
The standard 10 μL binding reaction contained 10 μp purified membranes (total protein) and 10 μM [^3H] progesterone or [^3H] cholesterol (3,000-5,000 cpm) in buffer A: 20% ethanol. Stock solutions (100 μM) of [^3H] cholesterol and [^3H] progesterone containing ˜4×10^4 cpm/μL, were prepared in 95% ethanol. Reactions were prepared in clear 2.0 mL microcentrifuge tubes on ice. To start the reaction, the microfuge tube was briefly mixed (vortex) and placed at 37° C. Following a 10 to 30 min incubation, the tubes were centrifuged in a microfuge (˜13,000 rpm) for 2 min. The supernatant was carefully removed and the pellet was washed with an additional 10 μL water. After a second round of centrifugation (2 min; 13,000 rpm), the resulting supernatant was combined with the first and the pellet was resuspended in 20 μL H2O, Scintillation fluid (700 μL Wallac Optiflour) was added to each fraction and the fractions were mixed extensively. The fractions were then counted in a multi-well scintillation counter (Wallac Microbeta Triluxmax, Waltham, Mass.) for 30 seconds each. Binding are reported as μ/moles of ligand bound per mg of membrane protein. His10-PGRMC1 (His10 disclosed as SEQ ID NO: 14)-specific binding is reported as the difference in binding between transformed and untransformed bacteria. Experimental deviations from the standard assay conditions are noted in individual figure legends.
To test whether progesterone and cholesterol compete for the same specific binding site, the direct binding of [^3H] progesterone or [^3H] cholesterol to His10-PGRMC1 (His10 disclosed as SEQ ID NO: 14) in the presence of various cold competitors was examined. In these experiments, the standard amount of [^3H] ligand was combined with a cold competitor at either 10 or 100-fold higher concentration and mixed well to ensure homogeneity. These stock ligand solutions were then used in the standard binding assay as described.
The ability of other putative ligands reported in the literature to compete with progesterone binding was examined. […] As a control, cold progesterone (P) was used as a competitor and it was observed that excess cold progesterone competes with [^3H] progesterone for His10-PGRMC1 (His10 disclosed as SEQ ID NO: 14) binding. Contrastingly, binding of [^3H] cholesterol to His10-PGRMC1 (His10 disclosed as SEQ ID NO: 14) was unaffected by the presence of progesterone, ergosterol, or heme at ten-fold higher concentrations (FIG. 9, cholesterol). It was not until competitor concentrations were 100-fold higher than ligand that a reduction of cholesterol binding was observed.

The subject of the next assay is dap1Δ S. cerevisiae. Description: Amphotericin B sensitivity of dap1Δ yeast. Format: cell-based. Conditions: 37° C; data not shown. The protocol:
PGRMC1 and its homologues have been implicated to be involved in a number of distinct biological processes. […] Additionally, dap1Δ S. cerevisiae appears to be resistant to the polyene antibiotic amphotericin B at 37° C. (data not shown). Amphotericin B functions in a similar manner as nystatin in binding to and depleting membrane ergosterol thereby killing the cell.

Structures are written as SMILES.

T1 sequence (O00264 whole entry): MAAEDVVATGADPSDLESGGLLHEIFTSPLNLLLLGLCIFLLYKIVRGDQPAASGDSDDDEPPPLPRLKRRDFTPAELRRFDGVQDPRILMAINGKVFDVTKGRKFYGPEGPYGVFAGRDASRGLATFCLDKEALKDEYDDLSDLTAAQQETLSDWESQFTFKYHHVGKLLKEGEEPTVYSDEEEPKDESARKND

On to `CC(C)[C@@H](C)/C=C/[C@@H](C)[C@H]1CC[C@H]2C3=CC=C4C[C@@H](O)CC[C@]4(C)[C@H]3CC[C@]12C` [ergosterol], for which, on His10-PGRMC1, the “effect of cold competitor on binding of [^3H] cholesterol” value is reported as “unaffected” and the “effect of cold competitor on specific [^3H] progesterone binding” value is “reduced”. Taken in the same sequence, the figures for `C=CC1=C(C)c2cc3[n-]c(cc4[n-]c(cc5nc(cc1n2)C(C)=C5C=C)c(C)c4CCC(=O)O)c(CCC(=O)O)c3C.[Fe+2]` [heme] were “unaffected” and “reduced”.

As for `C[C@@H]1[C@H](O)[C@@H](C)/C=C/C=C/C=C/C=C/C=C/C=C/C=C/[C@H](O[C@@H]2O[C@H](C)[C@@H](O)[C@H](N)[C@@H]2O)C[C@@H]2O[C@](O)(C[C@@H](O)C[C@@H](O)[C@H](O)CC[C@@H](O)C[C@@H](O)CC(=O)O[C@H]1C)C[C@H](O)[C@H]2C(=O)O` [amphotericin B], the “sensitivity of dap1Δ strain to the antibiotic” value with dap1Δ S. cerevisiae is reported as “resistant”.
